{"source": "patent US10004826B2", "about": "“Implantable human liver tissue constructs and uses thereof” (Massachusetts Institute of Technology, priority 2010, dated 2018)", "key": {"[1]": {"test_system": "Mouse livers", "settings": "in vivo", "quoted_text": "Serum samples acquired at 4 h following APAP exposure were assayed for the liver damage marker alanine transaminase (ALT) using an endpoint colorimetric enzymatic assay.\nSerum samples acquired at 4 h following APAP exposure were assayed for the liver damage markers aspartame transaminase (AST) using an endpoint colorimetric enzymatic assay. Shown are individual data points for n=3 mice per group, where black bars represent average values for each group.\nExplanted livers were sectioned and stained with H&E. Shown are representative sections.\nAt day 9 of implantation, mice were fed by oral gavage with 500 ml drinking water or 500 ml acetaminophen (APAP, 250 mg/kg) in water. Mice were fasted for 16 h prior to APAP administration. Following APAP exposure, blood was collected by retro-orbital draw at 4 h. Blood samples were acquired by retro-orbital draw at 4 h following APAP exposure, serum separated, and serum analyzed for enzymatic activity of alanine transaminase (ALT) and aspartame transaminase (AST), non-species specific markers of liver damage (Teco Diagnostics). Engineered liver mimetics and mouse livers were extracted for biochemical and histological analysis. Mouse livers were paraffin-embedded, sectioned with 5 um slices, de-paraffinized and stained for hematoxylin and eosin (H&E)."}, "[2]": {"test_system": "luciferase-expressing Plasmodium berghei (Pb-luc)", "settings": "Huh7.5 and HC04 hepatoma cells in alginate", "method": "Primary adult human hepatocytes and J2 stromal fibroblasts were seeded in lyophilized alginate sponges and infected with luciferase-expressing Plasmodium berghei (Pb-luc) three days post-seeding. Bioluminescence imaging was performed two days post-infection (FIG. 11a).\nNext, the response of Pb-luc-infected hepatoma aggregates in alginate to primaquine treatment was tested."}, "[3]": {"target": "T1, human CYP2A6 (Homo sapiens, UniProt P11509)", "T1 sequence (P11509 1-494)": "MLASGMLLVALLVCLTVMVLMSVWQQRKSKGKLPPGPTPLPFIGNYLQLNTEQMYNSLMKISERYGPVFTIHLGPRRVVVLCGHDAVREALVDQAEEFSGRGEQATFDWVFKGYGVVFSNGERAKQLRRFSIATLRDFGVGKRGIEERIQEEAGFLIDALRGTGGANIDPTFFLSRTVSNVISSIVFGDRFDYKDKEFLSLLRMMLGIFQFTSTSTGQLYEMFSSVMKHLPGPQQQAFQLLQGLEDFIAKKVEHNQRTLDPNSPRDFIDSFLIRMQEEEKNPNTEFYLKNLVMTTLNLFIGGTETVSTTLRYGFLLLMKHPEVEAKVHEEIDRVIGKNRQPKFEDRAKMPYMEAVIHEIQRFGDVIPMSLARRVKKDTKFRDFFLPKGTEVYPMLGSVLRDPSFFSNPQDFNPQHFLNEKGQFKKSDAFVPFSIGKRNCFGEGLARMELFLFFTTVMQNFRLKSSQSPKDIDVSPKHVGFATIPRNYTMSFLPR", "settings": "athymic nude, mouse, in vivo, ip, 80 mg/kg", "quoted_text": "Humanized mice established on a nude mouse background were administered coumarin at 80 mg/kg by intraperitoneal injection. Following drug administration, mice were bled by retro-orbital draw at specific timepoints, and drug concentration quantified by LC/MS/MS. Open circles represent humanized mice, and closed circles represent wild-type (no implant) mice. Error bars are SEM for n=3 mice per group.\n(§1) Mice administered 80 mg/kg of coumarin injected i.p. or 2 mg/kg debrisoquine (DB) gavaged p.o were subjected to retro-orbital draw at 5, 10 15, 30, 60, 90, and 120 minutes after drug administration, and terminal urine collection at 4 h. From ˜100 ml blood collections, serum was separated by centrifugation at 1200 g for 10 minutes and stored at −20° C. […] The area under the curve from time 0 until the time of the last measurable plasma concentration (AUC0-t) was calculated using the linear trapezoidal. Peak concentration (Cmax) and time to reach maximum concentration (tmax) values were obtained directly from the plasma concentration-time profile. Metabolic ratios were determined by dividing the AUC0-t of metabolite by the AUC0-t of the parent drug.\n(§2) Following coumarin or debrisoquine exposure, serum or urine was sampled for quantitation of drug parent and metabolite concentrations by liquid chromatography (LC)/MS/MS."}, "[4]": {"test_system": "hepatitis C virus", "settings": "uPA+/+/SCID model; cited from earlier work"}, "[5]": {"test_system": "human CYP2D6", "test": "Debrisoquine metabolism and pharmacokinetics in humanized C57/BL6 mice", "settings": "debrisoquine 2 mg/kg oral gavage", "quoted_text": "Humanized mice established on a C57/Bl6 mouse background were administered debrisoquine at 2 mg/kg by oral gavage. Following drug administration, mice were bled by retro-orbital draw at specific timepoints, and drug concentration quantified by LC/MS/MS. […] Error bars are SEM for n=3 mice per group.\nas §1, §2"}, "[6]": {"test_system": "human liver mimetics", "test": "Human hepatotoxicity in humanized mice by serum human albumin ELISA", "assay_type": "in vivo, mouse", "settings": "inducers daily at days 4-7 post-implantation; OME oral gavage, RIF i.p.; blood days 2, 5, 7", "text": "Error bars are SEM for n=3 or greater.\nBlood was collected by retro-orbital draw on days 2, 5 and 7 days after implantation for drug-treated mice and control mice with acellular hydrogel intraperitoneal implantations. Red bars mark average human serum albumin levels at each timepoint for n=3-6 mice per condition.\nHuman albumin in serum or media samples was quantified by enzyme-linked immunosorbant assay performed using goat anti-human albumin antibody, horseradish peroxidase detection, and 3,3′,5,5′-tetramethylbenzidine development. Urea was measured by acid- and heat-catalyzed detection of diacetylmonoxime conversion to a colorimetric product. Alanine aminotransfer (ALT) and aspartate aminotransfer (AST) enzymatic levels were detected with clinical kits based on colorimetric endpoint methods."}, "[7]": {"test_system": "encapsulated human hepatocytes", "test": "Albumin secretion and urea synthesis of HEP/FIB encapsulated in peptide-derivatized PEG-DA hydrogel", "assay_type": "cell-based", "settings": "10 μmol/ml peptide; vs RGES controls; one week in vitro", "method": "Liver mimetics were fabricated using a hydrogel polymerization apparatus. In brief, cellular pre-polymer solution was loaded into a 20-mm diameter, […] silicone spacer, and the solution exposed to UV light from a spot curing system with collimating lens (320-390 nm, 10 mW/cm^2, 20-30 s; EXFO Lite). […] Acrylate-PEG-peptide monomers were synthesized by conjugating RGDS or RGES to acrylate-PEG-N-hydroxysuccinimide (3.4 kDa) at a 1:1 molar ratio in 50 mM sodium bicarbonate buffer (pH 8.5). Reactions were dialyzed overnight against […] MWCO cellulose ester membrane and lyophilized for long-term storage at −80° C. Hepatocyte/fibroblast co-cultures were encapsulated at a final concentration of 8×10^6 hepatocytes/ml pre-polymer, in the absence or presence of an additional 6×10^6 liver endothelial cells (LEC)/ml of pre-polymer.\nHuman albumin in serum or media samples was quantified by enzyme-linked immunosorbant assay performed using goat anti-human albumin antibody, horseradish peroxidase detection, and 3,3′,5,5′-tetramethylbenzidine development. Urea was measured by acid- and heat-catalyzed detection of diacetylmonoxime conversion to a colorimetric product. Alanine aminotransfer (ALT) and aspartate aminotransfer (AST) enzymatic levels were detected with clinical kits based on colorimetric endpoint methods. […]"}}, "data": [{"molecule": "CC(=O)Nc1ccc(O)cc1", "note": "[APAP, acetaminophen]", "values": [{"measurement": "Mouse liver injury by serum liver function enzyme tests and histopathology", "setting": "[1]", "result": "appeared uninjured"}]}, {"molecule": "COc1cc(NC(C)CCCN)c2ncccc2c1", "note": "(centres unmarked) [primaquine]", "values": [{"measurement": "Inhibition of parasite development (BLI quantification)", "setting": "[2]", "result": "greater effect on inhibiting parasite development in Huh7.5 than in HC04"}]}, {"molecule": "O=c1ccc2ccc(O)cc2o1", "note": "[7-HC, 7-hydroxycoumarin]", "values": [{"measurement": "Metabolic ratio (metabolite exposure over parent drug exposure, AUC), 7-HC/coumarin", "setting": "[3]", "result": "> 0.1"}]}, {"molecule": "COc1ccc2c(O[C@@H]3C[C@H]4C(=O)N[C@]5(C(=O)O)C[C@H]5/C=C\\CCCCC[C@H](NC(=O)OC5CCCC5)C(=O)N4C3)cc(-c3csc(NC(C)C)n3)nc2c1", "note": "[BILN-2061]", "values": [{"measurement": "Response of HCV infection to anti-HCV therapy", "setting": "[4]", "result": "responding"}]}, {"molecule": "N=C(N)N1Cc2ccccc2C(O)C1", "note": "(centres unmarked) [4-OHDB, 4-hydroxydebrisoquine]", "values": [{"measurement": "Metabolic ratio (metabolite exposure over parent drug exposure, AUC), 4-OHDB/debrisoquine", "setting": "[5]", "result": "> 0.1"}]}, {"molecule": "COc1ccc2[nH]c([S+]([O-])Cc3ncc(C)c(OC)c3C)nc2c1", "note": "(centres unmarked) [OME, omeprazole]", "values": [{"measurement": "Human serum albumin from humanized mice over time", "setting": "[6]", "result": "not affected"}]}, {"molecule": "CO[C@H]1/C=C/O[C@@]2(C)Oc3c(C)c(O)c4c(O)c(c(/C=N/N5CCN(C)CC5)c(O)c4c3C2=O)NC(=O)/C(C)=C\\C=C\\[C@H](C)[C@H](O)[C@@H](C)[C@@H](O)[C@@H](C)[C@H](OC(C)=O)[C@@H]1C", "note": "[RIF, rifampin]", "values": [{"measurement": "Mouse liver injury by serum liver function enzyme tests and histopathology", "setting": "[1]", "result": "appeared uninjured"}]}, {"molecule": "RGDS", "values": [{"measurement": "Improvement of encapsulated HEP/FIB synthetic and secretory functions", "setting": "[7]", "result": "two- to three-fold"}]}]}
